The experiment relates to Kunming mice. The experiment can be described thus: Analgesic activity by acetic acid-induced writhing method. It counts as in vivo. Conditions: Mus musculus, sc, subcutaneous, 15 min before i.p. 0.7% acetic acid, writhing inhibition vs blank group, read-out: Analgesia rate ± SEM (%); for inhibition in vivo at 10 mg/kg: Dosing concentration 10 mg/kg; for inhibition in vivo at 3.5 mg/kg: Dosing concentration 3.5 mg/kg. How it is done: The experimental animals were Kunming mice (male:female=1:1), weighed 22±2 g, which were provided by Chengdu dossy experimental animals Co., ltd., China. The mice were kept in the animal room of the School of Life Science and Engineering, Southwest Jiaotong University, where the animal room was set at a temperature of 23±2° C., a humidity of 55±5% and a photoperiod of 16:8 h (L:D). Before the experiment, the mice were freely fed for 2-3 days with water and feed to adapt to the new environment. Then, the mice were treated by water fasting for 12 h. 10 animals were allocated to each group to ensure that there are at least 6 sets of valid data in each group. The animal experiments were carried out in strict accordance with the national regulations on the management of experimental animals.
The compounds prepared in the examples provided herein and the positive control lappaconitine were all dissolved with 0.1 mol/L HCl according to the amount of the substance ratio of 1:1, and then diluted with physiological saline to a concentration to be determined. The samples to be tested were the compounds prepared the examples provided herein; the positive control was lappaconitine; and the blank control was physiological saline containing 0.1 mol/L HCl.
The animals in the control groups were subjected to the same treatment as those in the experimental group except that the samples to be test were replaced with physiological saline.
10 mice were randomly selected, male:female=1:1, were placed in independent cages. Each mouse was injected subcutaneously with the sample solution mentioned above at a dose of 0.1 mL/10 g body weight. After 15 min, a 0.7% acetic acid solution was intraperitoneally injected. The number of writhing reactions in each mouse within 15 minutes was recorded. The group that the mice were injected with physiological saline subcutaneously was the blank group; the group that the mice were injected with the sample to be tested was the experimental group; and the group that the mice were injected with lappaconitine was the positive group. The analgesic activity was represented by a percentage of the reduced number of writhing compared to the blank group (writhing inhibition rate), which were specifically as follows: writhing inhibition rate (analgesic activity)=(average number of writhing times in the blank group-average number of writhing times in the experimental group)/average number of writhing times in the blank group×100%.
A general note: An intraperitoneal irritant provokes the stretching counted in writhing tests.

Regarding `CCCOc1ccc(C(=O)Nc2ccccc2C(=O)O[C@@]23CC[C@H](OC)C45C2CC([C@H]4N(CC)C3)[C@@]2(O)C[C@H](OC)[C@H]3CC5[C@]2(O)[C@H]3OC)cc1` (stereo partly shown) [Compound 35], the inhibition in vivo at 10 mg/kg was found to be 48.4 ± 6.08%.
For the compound `CCN1C[C@]2(OC(=O)c3ccccc3NC(=O)NC)CC[C@H](OC)[C@@]34C2CC([C@@H]13)[C@@]1(O)C[C@H](OC)[C@H]2CC4[C@]1(O)[C@H]2OC` (stereo partly shown) [Compound 18], the inhibition in vivo at 10 mg/kg is 20 ± 6.67%.
The same measure, in the same setting: the same measure for `CCN1C[C@]2(OC(=O)c3ccccc3NS(=O)(=O)c3cccc4c(N(C)C)cccc34)CC[C@H](OC)[C@@]34C2CC([C@@H]13)[C@@]1(O)C[C@H](OC)[C@H]2CC4[C@]1(O)[C@H]2OC` (stereo partly shown) [Compound 10]: 42.5 ± 2.56%; for `CCN1C[C@]2(OC(=O)c3ccccc3NC(=O)c3ccc(C(C)C)cc3)CC[C@H](OC)C3C2C[C@@H]([C@@H]1C)[C@@]1(O)CC(OC)[C@H]2CC3[C@]1(O)[C@H]2OC` (stereo partly shown) [Compound 49]: 21 ± 6.58%.
Regarding `CCN1C[C@]2(OC(=O)c3ccccc3NS(=O)(=O)Oc3ccccc3)CC[C@H](OC)C34C2CC([C@@H]13)[C@@]1(O)C[C@H](OC)[C@H]2CC4[C@]1(O)[C@H]2OC` (stereo partly shown) [Compound 28], the inhibition in vivo at 10 mg/kg came out at 1.03 ± 10.3%.
The same measure, in the same setting: the same measure for `CCN1C[C@]2(OC(=O)c3ccccc3NS(=O)(=O)c3cccs3)CC[C@H](OC)C34C2CC([C@@H]13)[C@@]1(O)C[C@H](OC)[C@H]2CC4[C@]1(O)[C@H]2OC` (stereo partly shown) [Compound 29]: 1.03 ± 5.37%; for `CCN1C[C@]2(OC(=O)c3ccccc3NC(=O)OC(C)C)CC[C@H](OC)[C@@]34C2CC([C@@H]13)[C@@]1(O)C[C@H](OC)[C@H]2CC4[C@]1(O)[C@H]2OC` (stereo partly shown) [Compound 14]: 28.4 ± 4.98%.
On to `CCN1C[C@]2(OC(=O)c3ccccc3NS(C)(=O)=O)CC[C@H](OC)[C@@]34C2CC([C@@H]13)[C@@]1(O)C[C@H](OC)[C@H]2CC4[C@]1(O)[C@H]2OC` (stereo partly shown) [Compound 17], for which the inhibition in vivo at 10 mg/kg turned out to be 22.8 ± 7.58%.
Turning to `C/C=C/S(=O)(=O)Nc1ccccc1C(=O)O[C@@]12CC[C@H](OC)[C@@]34C1CC([C@H]3N(CC)C2)[C@@]1(O)C[C@H](OC)[C@H]2CC4[C@]1(O)[C@H]2OC` (stereo partly shown) [Compound 16], the inhibition in vivo at 10 mg/kg was 24.4 ± 8.46%.
The same measure, in the same setting: the same measure for `CCN1C[C@]2(OC(=O)c3ccccc3NS(=O)(=O)c3ccc(C(F)(F)F)cc3)CC[C@H](OC)[C@@]34C2CC([C@@H]13)[C@@]1(O)C[C@H](OC)[C@H]2CC4[C@]1(O)[C@H]2OC` (stereo partly shown) [Compound 19]: 19.4 ± 5%.
Still for that read-out and setting: the same measure for `CCN1C[C@]2(OC(=O)c3ccccc3NC(=O)c3ccc(I)cc3)CC[C@H](OC)C3C2C[C@@H]([C@@H]1C)[C@@]1(O)CC(OC)[C@H]2CC3[C@]1(O)[C@H]2OC` (stereo partly shown) [Compound 43]: 31.1 ± 8.56%.
For the compound `CCN1C[C@]2(OC(=O)c3ccccc3NC(=O)CC(C)(C)C)CC[C@H](OC)C3C2C[C@@H]([C@@H]1C)[C@@]1(O)CC(OC)[C@H]2CC3[C@]1(O)[C@H]2OC` (stereo partly shown) [Compound 47], the inhibition in vivo at 10 mg/kg is 24.9 ± 9.7%.
On the same count and under the same terms, the same measure for `CCN1C[C@]2(OC(=O)c3ccccc3NS(=O)(=O)Cc3ccc([N+](=O)[O-])cc3)CC[C@H](OC)[C@@]34C2CC([C@@H]13)[C@@]1(O)C[C@H](OC)[C@H]2CC4[C@]1(O)[C@H]2OC` (stereo partly shown) [Compound 11]: 42.4 ± 5.98%; for `CCCCCCC(=O)Nc1ccccc1C(=O)O[C@@]12CC[C@H](OC)C34C1CC([C@H]3N(CC)C2)[C@@]1(O)C[C@H](OC)[C@H]2CC4[C@]1(O)[C@H]2OC` (stereo partly shown) [Compound 34]: 54.2 ± 6.15%; for `CCN1C[C@]2(OC(=O)c3ccccc3NS(=O)(=O)c3ccc(Cl)cc3)CC[C@H](OC)C34C2CC([C@@H]13)[C@@]1(O)C[C@H](OC)[C@H]2CC4[C@]1(O)[C@H]2OC` (stereo partly shown) [Compound 25]: 11.7 ± 7.78%.
The same measure, in the same setting: the same measure for `CCN1C[C@]2(OC(=O)c3ccccc3NS(=O)(=O)c3ccc(Br)cc3)CC[C@H](OC)C34C2CC([C@@H]13)[C@@]1(O)C[C@H](OC)[C@H]2CC4[C@]1(O)[C@H]2OC` (stereo partly shown) [Compound 26]: 11.4 ± 7.58%; for `CCN1C[C@]2(OC(=O)c3ccccc3NC(=O)C3CCCO3)CC[C@H](OC)C3C2C[C@@H]([C@@H]1C)[C@@]1(O)CC(OC)[C@H]2CC3[C@]1(O)[C@H]2OC` (stereo partly shown) [Compound 48]: 21.8 ± 12.6%; for `CCN1C[C@]2(OC(=O)c3ccccc3NS(=O)(=O)c3ccc(-c4ccccc4)cc3)CC[C@H](OC)C34C2CC([C@@H]13)[C@@]1(O)C[C@H](OC)[C@H]2CC4[C@]1(O)[C@H]2OC` (stereo partly shown) [Compound 22]: 16.1 ± 10.6%.
Still for that read-out and setting: the same measure for `CCN1C[C@]2(OC(=O)c3ccccc3NS(=O)(=O)Cc3ccccc3)CC[C@H](OC)[C@@]34C2CC([C@@H]13)[C@@]1(O)C[C@H](OC)[C@H]2CC4[C@]1(O)[C@H]2OC` (stereo partly shown) [Compound 9]: 43.8 ± 4.5%.
Consider `CCN1C[C@]2(OC(=O)c3ccccc3NS(=O)(=O)c3ccc(OC)cc3)CC[C@H](OC)[C@@]34C2CC([C@@H]13)[C@@]1(O)C[C@H](OC)[C@H]2CC4[C@]1(O)[C@H]2OC` (stereo partly shown) [Compound 20], for which the inhibition in vivo at 3.5 mg/kg amounted to 16.8 ± 6.09%.
On to `CCCC(C)C(=O)Nc1ccccc1C(=O)O[C@@]12CC[C@H](OC)C3C1C[C@@H]([C@H](C)N(CC)C2)[C@@]1(O)CC(OC)[C@H]2CC3[C@]1(O)[C@H]2OC` (stereo partly shown) [Compound 42], for which the inhibition in vivo at 10 mg/kg came out at 31.3 ± 10.7%.
The same measure, in the same setting: the same measure for `CCN1C[C@]2(OC(=O)c3ccccc3NS(=O)(=O)CC)CC[C@H](OC)C34C2CC([C@@H]13)[C@@]1(O)C[C@H](OC)[C@H]2CC4[C@]1(O)[C@H]2OC` (stereo partly shown) [Compound 27]: 4.02 ± 9.5%; for `CCN1C[C@]2(OC(=O)c3ccccc3NS(=O)(=O)c3cccc(F)c3)CC[C@H](OC)[C@@]34C2CC([C@@H]13)[C@@]1(O)C[C@H](OC)[C@H]2CC4[C@]1(O)[C@H]2OC` (stereo partly shown) [Compound 7]: 50.2 ± 6.85%; for `CCc1ccc(C(=O)Nc2ccccc2C(=O)O[C@@]23CC[C@H](OC)C4C2C[C@@H]([C@H](C)N(CC)C3)[C@@]2(O)CC(OC)[C@H]3CC4[C@]2(O)[C@H]3OC)cc1` (stereo partly shown) [Compound 46]: 26.7 ± 7.95%.
Same read-out and setting: the same measure for `CCN1C[C@]2(OC(=O)c3ccccc3NS(=O)(=O)c3cccc4cccnc34)CC[C@H](OC)[C@@]34C2CC([C@@H]13)[C@@]1(O)C[C@H](OC)[C@H]2CC4[C@]1(O)[C@H]2OC` (stereo partly shown) [Compound 12]: 41.9 ± 3.8%; for `CCOC(=O)Nc1ccccc1C(=O)O[C@@]12CC[C@H](OC)C34C1CC([C@H]3N(CC)C2)[C@@]1(O)C[C@H](OC)[C@H]2CC4[C@]1(O)[C@H]2OC` (stereo partly shown) [Compound 21]: 16.4 ± 11.5%; for `CCN1C[C@]2(OC(=O)c3ccccc3NS(=O)(=O)c3cccc4ccccc34)CC[C@H](OC)[C@@]34C2CC([C@@H]13)[C@@]1(O)C[C@H](OC)[C@H]2CC4[C@]1(O)[C@H]2OC` (stereo partly shown) [Compound 8]: 49.2 ± 5%.
Regarding `CCN1C[C@]2(OC(=O)c3ccccc3NS(=O)(=O)c3ccc(F)cc3)CC[C@H](OC)C34C2CC([C@@H]13)[C@@]1(O)C[C@H](OC)[C@H]2CC4[C@]1(O)[C@H]2OC` (stereo partly shown) [Compound 23], the inhibition in vivo at 3.5 mg/kg turned out to be 14.7 ± 13.2%.
Turning to `CCN1C[C@]2(OC(=O)c3ccccc3NS(=O)(=O)c3ccccc3F)CC[C@H](OC)[C@@]34C2CC([C@@H]13)[C@@]1(O)C[C@H](OC)[C@H]2CC4[C@]1(O)[C@H]2OC` (stereo partly shown) [Compound 6], the inhibition in vivo at 10 mg/kg came out at 60.3 ± 5.94%.
Still for that read-out and setting: the same measure for `CCCCc1ccc(C(=O)Nc2ccccc2C(=O)O[C@@]23CC[C@H](OC)C4C2C[C@@H]([C@H](C)N(CC)C3)[C@@]2(O)CC(OC)[C@H]3CC4[C@]2(O)[C@H]3OC)cc1` (stereo partly shown) [Compound 44]: 28.2 ± 7.88%; for `CCN1C[C@]2(OC(=O)c3ccccc3NC(=O)C3CCOCC3)CC[C@H](OC)C3C2C[C@@H]([C@@H]1C)[C@@]1(O)CC(OC)[C@H]2CC3[C@]1(O)[C@H]2OC` (stereo partly shown) [Compound 50]: 16.4 ± 8.07%.
With `CCN1C[C@]2(OC(=O)c3ccccc3NC(=O)C3CC3)CC[C@H](OC)C3C2C[C@@H]([C@@H]1C)[C@@]1(O)CC(OC)[C@H]2CC3[C@]1(O)[C@H]2OC` (stereo partly shown) [Compound 39], where the note is “Dosing concentration 5 mg/kg”, the inhibition in vivo at 5 mg/kg is 33.5 ± 7.27%.
In the case of `CCN1C[C@]2(OC(=O)c3ccccc3NC(=O)c3ccc(Cl)s3)CC[C@H](OC)C3C2C[C@@H]([C@@H]1C)[C@@]1(O)CC(OC)[C@H]2CC3[C@]1(O)[C@H]2OC` (stereo partly shown) [Compound 45], the inhibition in vivo at 10 mg/kg came out at 27.8 ± 5.83%.
Take `CCN1C[C@]2(OC(=O)c3ccccc3NC(=O)c3ccc(Cl)cc3)CC[C@H](OC)C3C2C[C@@H]([C@@H]1C)[C@@]1(O)CC(OC)[C@H]2CC3[C@]1(O)[C@H]2OC` (stereo partly shown) [Compound 40]: the inhibition in vivo at 10 mg/kg is 31.6 ± 12.6%.

The values above are taken from patent publication US11840517B2, “Lappaconitine derivative with analgesic activity, and preparation and application thereof” (priority 2021, dated 2023).
